According to US20240318160A1 (Wisconsin Alumni Research Foundation, priority 2023, published 2024):
Several values for one entry are separate records, joined by “and”; a condition that tells them apart may be missing. Equal entries are not always repeated.

What was measured:
Type in all cases: biochemical
[1] = test system: Joinvillea ascendens JaPTAL (SEQ ID NO: 27) variant H125F/I97S (JaPTAL^H125F_I97S); test: TAL and PAL enzyme kinetics; conditions: PAL assay (L-Phe), pH 8.5, 30° C.
Description: (§1) A mixture containing 100 mM Tris-HCl (pH 8.5), 1% glycerol, and purified enzyme in a total volume of 50 μl was preincubated for 3 min at 30° C. […] The reactions were terminated by addition of 6N acetic acid (10 μl).
(§2) The kinetic parameters of the recombinant enzymes were determined using HPLC. Reaction mixtures containing 100 mM Tris-HCl (pH 8.5), 1% glycerol, and purified enzyme (0.15 μg for PAL assay and 1 μg for TAL assay) in a 50 μl total volume were preincubated for 3 min at 30° C. […] After 10 min and 20 min incubations for PAL and TAL assay, respectively, at 30° C., the reaction was terminated by addition of 6N acetic acid (10 μl). […] The products were quantified using calibration curves generated using authentic standards. Non-linear hyperbolic regression analyses were conducted using the Excel Solver tool to calculate Km and Vmax values.

[2] = test system: Sorghum bicolor SbPAL, wild type; test: TAL and PAL enzyme kinetics; conditions: PAL assay (L-Phe), pH 8.5, 30° C.
Description: as §1, §2

[3] = test system: Joinvillea ascendens JaPTAL, wild type, SEQ ID NO: 27; test: TAL and PAL enzyme kinetics; conditions: PAL assay (L-Phe), pH 8.5, 30° C.
Description: as §1, §2

[4] = test system: Ecdeiocolea monostachya EmoPTAL, wild type; test: TAL and PAL enzyme kinetics; conditions: PAL assay (L-Phe), pH 8.5, 30° C.
Description: as §1, §2

[5] = test system: Streptochaeta angustifolia SaPTAL-a variant H118F (SaPTAL-a^H118F); test: TAL and PAL enzyme kinetics; conditions: PAL assay (L-Phe), pH 8.5, 30° C.
Description: as §1, §2

[6] = test system: Streptochaeta angustifolia SaPTAL-b variant H126F (SaPTAL-b^H126F); test: TAL and PAL enzyme kinetics; conditions: PAL assay (L-Phe), pH 8.5, 30° C.
Description: as §1, §2

[7] = test system: Joinvillea ascendens JaPAL variant F140H (JaPAL^F140H), SEQ ID NO: 259; test: TAL and PAL enzyme kinetics; conditions: PAL assay (L-Phe), pH 8.5, 30° C.
Description: as §1, §2

[8] = test system: Ecdeiocolea monostachya EmoPAL variant F134H (EmoPAL^F134H); test: TAL and PAL enzyme kinetics; conditions: PAL assay (L-Phe), pH 8.5, 30° C.
Description: as §1, §2

[9] = test system: Streptochaeta angustifolia SaPTAL-a, wild type; test: TAL and PAL enzyme kinetics; conditions: PAL assay (L-Phe), pH 8.5, 30° C.
Description: as §1, §2

[10] = test system: Joinvillea ascendens JaPAL, wild type, SEQ ID NO: 28; test: TAL and PAL enzyme kinetics; conditions: PAL assay (L-Phe), pH 8.5, 30° C.
Description: as §1, §2

[11] = test system: Joinvillea ascendens JaPTAL (SEQ ID NO: 27) variant H125F (JaPTAL^H125F); test: TAL and PAL enzyme kinetics; conditions: PAL assay (L-Phe), pH 8.5, 30° C.
Description: as §1, §2

[12] = test system: Ecdeiocolea monostachya EmoPTAL variant H127F (EmoPTAL^H127F); test: TAL and PAL enzyme kinetics; conditions: PAL assay (L-Phe), pH 8.5, 30° C.
Description: as §1, §2

[13] = test system: Sorghum bicolor SbPAL variant F135H (SbPAL^F135H); test: TAL and PAL enzyme kinetics; conditions: PAL assay (L-Phe), pH 8.5, 30° C.
Description: as §1, §2

[14] = test system: Streptochaeta angustifolia SaPTAL-b, wild type; test: TAL and PAL enzyme kinetics; conditions: PAL assay (L-Phe), pH 8.5, 30° C.
Description: as §1, §2

[15] = test system: Ecdeiocolea monostachya EmoPAL, wild type; test: TAL and PAL enzyme kinetics; conditions: PAL assay (L-Phe), pH 8.5, 30° C.
Description: as §1, §2

[16] = test system: PTAL^H140F mutants (SbPTAL^H123F, BdPTAL^H123F, SaPTAL-a^H118F, SaPTAL-b^H126F, EmoPTAL^H127F, JaPTAL^H125F); test: TAL and PAL enzyme kinetics, group of enzymes; conditions: on average
Source text: To experimentally test the role of His 140 in the acquisition of TAL activity, we next conducted site-directed mutagenesis on the PAL and PTAL enzymes of grasses and non-grass graminids characterized above and analyzed their effects on TAL activity. For the PAL enzymes, the residue corresponding to Phe 140 was converted to His to generate JaPAL^F140H EmoPAL^F134H, BdPAL^F137H, and SbPAL^F135H. […] For the PTAL enzymes, the residue corresponding to His 140 was converted to Phe to generate SbPTAL^H123F, BdPTAL^H123F, SaPTAL-a^H118F, SaPTAL-b^H126F, EmoPTAL^H127F, and JaPTAL^H125F. […] Thus, unlike in the bacterial TAL enzyme (Watts et al., 2006), other residues besides the His 140 are likely important for the acquisition of strong TAL activity in the PTAL enzymes of grasses and closely-related non-grass graminids.
The kinetic parameters of the recombinant enzymes were determined using HPLC. Reaction mixtures containing 100 mM Tris-HCl (pH 8.5), 1% glycerol, and purified enzyme (0.15 μg for PAL assay and 1 μg for TAL assay) in a 50 μl total volume were preincubated for 3 min at 30° C. PAL and TAL reactions were started by addition of 50 μl substrate solution prepared with 0-4 mM L-Phe and 0-2 mM L-Tyr. After 10 min and 20 min incubations for PAL and TAL assay, respectively, at 30° C., the reaction was terminated by addition of 6N acetic acid (10 μl). […] The products were quantified using calibration curves generated using authentic standards. Non-linear hyperbolic regression analyses were conducted using the Excel Solver tool to calculate Km and Vmax values.

N[C@@H](Cc1ccccc1)C(=O)O [L-Phe, phenylalanine]
Km [1]: 9.42 ± 0.8 µM
kcat [1]: 0.02 ± 0.00 s⁻¹
kcat/Km [1]: 1660 ± 120 M⁻¹ s⁻¹
Km [2]: 43.9 ± 2.7 µM
kcat [2]: 0.97 ± 0.02 s⁻¹
kcat/Km [2]: 22050 ± 1080 M⁻¹ s⁻¹
Km [3]: 66 µM and 65.6 µM
kcat [3]: 0.5 s⁻¹ and 0.45 ± 0.02 s⁻¹
kcat/Km [3]: 6800 ± 180 M⁻¹ s⁻¹
Km [4]: 64.1 ± 3.1 µM
kcat [4]: 0.48 ± 0.00 s⁻¹
kcat/Km [4]: 7540 ± 390 M⁻¹ s⁻¹
Km [5]: 6 ± 0.8 µM
kcat [5]: 0.20 ± 0.00 s⁻¹
kcat/Km [5]: 33600 ± 5100 M⁻¹ s⁻¹
Km [6]: 6.3 ± 0.5 µM
kcat/Km [6]: 37050 ± 2120 M⁻¹ s⁻¹
Km [7]: 697 ± 169 µM
kcat [7]: 0.60 ± 0.04 s⁻¹
kcat/Km [7]: 890 ± 180 M⁻¹ s⁻¹
Km [8]: 1310 ± 25.6 µM
kcat [8]: 0.42 ± 0.01 s⁻¹
kcat/Km [8]: 320 ± 10 M⁻¹ s⁻¹
Km [9]: 154 ± 3.7 µM
kcat [9]: 0.39 ± 0.01 s⁻¹
kcat/Km [9]: 2510 ± 30 M⁻¹ s⁻¹
Km [10]: 24 µM and 24.4 µM
kcat [10]: 1.9 s⁻¹ and 1.92 ± 0.01 s⁻¹
kcat/Km [10]: 78600 ± 0 M⁻¹ s⁻¹
Km [11]: 6.8 ± 0.7 µM
kcat [11]: 0.08 ± 0.00 s⁻¹
kcat/Km [11]: 12280 ± 710 M⁻¹ s⁻¹
Km [12]: 3.6 ± 0.5 µM
kcat [12]: 0.12 ± 0.00 s⁻¹
kcat/Km [12]: 32620 ± 2120 M⁻¹ s⁻¹
Km [13]: 1050 ± 58.5 µM
kcat [13]: 0.88 ± 0.05 s⁻¹
kcat/Km [13]: 840 ± 20 M⁻¹ s⁻¹
Km [14]: 227.4 ± 1.5 µM
kcat [14]: 0.56 ± 0.02 s⁻¹
kcat/Km [14]: 2460 ± 100 M⁻¹ s⁻¹
Km [15]: 27.7 ± 1.9 µM
kcat [15]: 1.23 ± 0.02 s⁻¹
kcat/Km [15]: 44700 ± 2390 M⁻¹ s⁻¹
kcat relative to wild type ([16]; PAL activity (Phe)): 0.25 fold
Km toward Phe relative to corresponding wild-type enzymes ([16]; PAL activity): 0.04 fold
